Data from PubChem BioAssay AID248 (DTP/NCI, 2004).
Where “and” joins values, the source holds several entries; their conditions need not be identical. Equal values may be shown once. Inconclusive results and toxic doses are left out.

Tested on: L1210 leukemia ip in BDF1 mice, survival T/C
Experiment: NCI In Vivo Anticancer Drug Screen. Data for tumor model L1210 Leukemia (intraperitoneal) in B6D2F1 (BDF1) mice
Conditions: endpoint: mean survival time, higher = longer survival
How it was run: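 Transplanted-tumor mice were given test agent; controls received vehicle only. Survival readings from the two groups were divided (treated over control).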

[1] = dose: 50.0 mg/kg/injection, schedule: Q01DX001 (ip), vehicle: saline
[2] = dose: 100.0 mg/kg/injection, schedule: Q01DX001 (ip), vehicle: saline
[3] = dose: 200.0 mg/kg/injection, schedule: Q01DX001 (ip), vehicle: saline
[4] = dose: 400.0 mg/kg/injection, schedule: Q01DX001 (ip), vehicle: saline
[5] = dose: 100.0 mg/kg/injection, schedule: Q04DX003 (ip), vehicle: Klucel (hydroxypropylcellulose) (HPC)
[6] = dose: 200.0 mg/kg/injection, schedule: Q04DX003 (ip), vehicle: Klucel (hydroxypropylcellulose) (HPC)
[7] = dose: 400.0 mg/kg/injection, schedule: Q04DX003 (ip), vehicle: Klucel (hydroxypropylcellulose) (HPC)
[8] = dose: 100.0 mg/kg/injection, schedule: Q01DX001 (ip), vehicle: carboxymethylcellulose (CMC)
[9] = dose: 200.0 mg/kg/injection, schedule: Q01DX001 (ip), vehicle: carboxymethylcellulose (CMC)
[10] = dose: 400.0 mg/kg/injection, schedule: Q01DX001 (ip), vehicle: carboxymethylcellulose (CMC)

For `CCCB(O)O`, the T/C (dose: 100.0 mg/kg/injection, schedule: Q01DX001 (ip), vehicle: other) was 100 % of control, the T/C (dose: 100.0 mg/kg/injection, schedule: Q04DX003 (ip), vehicle: other) was 106 % of control and the T/C (dose: 200.0 mg/kg/injection, schedule: Q01DX001 (ip), vehicle: other) was 101 % of control. For the same compound, the T/C (dose: 200.0 mg/kg/injection, schedule: Q04DX003 (ip), vehicle: other) was 105 % of control, the T/C (dose: 400.0 mg/kg/injection, schedule: Q01DX001 (ip), vehicle: other) was 101 % of control and the T/C (dose: 400.0 mg/kg/injection, schedule: Q04DX003 (ip), vehicle: other) was 106 % of control.
For `Nc1nc(CCc2ccc(NC(=O)CBr)cc2)c(CCCCc2ccccc2)c(=O)[nH]1`, the T/C [1] was 104 % of control, the T/C [2] was 102 % of control and the T/C [3] was 96 % of control. The T/C [4] was 110 % of control.
With `COC1CCC(NC(=O)N(CCCl)N=O)CC1` (centres undefined) the T/C (dose: 3.5 mg/kg/injection, schedule: Q01DX001 (ip), vehicle: saline with Tween-80) was 106 % of control, the T/C (dose: 5.0 mg/kg/injection, schedule: Q01DX001 (ip), vehicle: saline with Tween-80) was 110 % of control and the T/C (dose: 8.0 mg/kg/injection, schedule: Q01DX001 (ip), vehicle: saline with Tween-80) was 124 % of control. The T/C (dose: 16.0 mg/kg/injection, schedule: Q01DX001 (ip), vehicle: saline with Tween-80) was 155 % of control and 266 % of control, the T/C (dose: 18.0 mg/kg/injection, schedule: Q01DX001 (ip), vehicle: saline with Tween-80) was 221 % of control and the T/C (dose: 24.0 mg/kg/injection, schedule: Q01DX001 (ip), vehicle: saline with Tween-80) was 592 % of control. The T/C (dose: 26.0 mg/kg/injection, schedule: Q01DX001 (ip), vehicle: saline with Tween-80) was 302 % of control, the T/C (dose: 35.0 mg/kg/injection, schedule: Q01DX001 (ip), vehicle: saline with Tween-80) was 404 % of control and the T/C (dose: 40.0 mg/kg/injection, schedule: Q01DX001 (ip), vehicle: saline with Tween-80) was 340 % of control. For the same compound, the T/C (dose: 53.0 mg/kg/injection, schedule: Q01DX001 (ip), vehicle: saline with Tween-80) was 193 % of control and the T/C (dose: 60.0 mg/kg/injection, schedule: Q01DX001 (ip), vehicle: saline with Tween-80) was 294 % of control.
For `O=P(Oc1ccccc1)(OP(=O)(Oc1ccccc1)N(CCCl)CCCl)N(CCCl)CCCl` (centres undefined), the T/C (dose: 12.5 mg/kg/injection, schedule: Q01DX Z (ip), vehicle: methylcellulose (MC)) was 97 % of control, the T/C (dose: 25.0 mg/kg/injection, schedule: Q01DX Z (ip), vehicle: methylcellulose (MC)) was 102 % of control and the T/C (dose: 50.0 mg/kg/injection, schedule: Q01DX Z (ip), vehicle: methylcellulose (MC)) was 96 % of control. For the same compound, the T/C (dose: 100.0 mg/kg/injection, schedule: Q01DX Z (ip), vehicle: methylcellulose (MC)) was 96 % of control, the T/C (dose: 250.0 mg/kg/injection, schedule: Q01DX Z (ip), vehicle: other) was 98 % of control and the T/C (dose: 500.0 mg/kg/injection, schedule: Q01DX Z (ip), vehicle: other) was 104 % of control.
With `CCCCC(CC)COC(=O)CCC(CCC(=O)OCC(CC)CCCC)C(=O)OCC(CC)CCCC` (centres undefined) the T/C (dose: 100.0 mg/kg/injection, schedule: Q04DX003 (ip), vehicle: saline sonified) was 98 % of control, the T/C (dose: 200.0 mg/kg/injection, schedule: Q04DX003 (ip), vehicle: saline sonified) was 104 % of control and the T/C (dose: 400.0 mg/kg/injection, schedule: Q04DX003 (ip), vehicle: saline sonified) was 96 % of control.
With `NC(CSS(=O)(=O)O)=NCCCCc1ccccc1` the T/C (dose: 12.5 mg/kg/injection, schedule: Q04DX002 (ip), vehicle: Klucel (hydroxypropylcellulose) (HPC)) was 91 % of control and the T/C (dose: 25.0 mg/kg/injection, schedule: Q04DX002 (ip), vehicle: Klucel (hydroxypropylcellulose) (HPC)) was 102 % of control.
For `O=C(Nc1ccc(Br)cc1)C(Br)C(Br)c1ccccc1` (centres undefined), the T/C (dose: 100.0 mg/kg/injection, schedule: Q04DX002 (ip), vehicle: Klucel (hydroxypropylcellulose) (HPC)) was 98 % of control, the T/C (dose: 200.0 mg/kg/injection, schedule: Q04DX002 (ip), vehicle: Klucel (hydroxypropylcellulose) (HPC)) was 88 % of control and the T/C (dose: 400.0 mg/kg/injection, schedule: Q04DX002 (ip), vehicle: Klucel (hydroxypropylcellulose) (HPC)) was 98 % of control.
In the case of `Cc1c(N)c(C)c(F)c(-c2c(N)c(C)c(N)c(C)c2F)c1N`, the T/C (dose: 100.0 mg/kg/injection, schedule: Q01DX001 (ip), vehicle: Klucel (hydroxypropylcellulose) (HPC)) was 92 % of control, the T/C (dose: 200.0 mg/kg/injection, schedule: Q01DX001 (ip), vehicle: Klucel (hydroxypropylcellulose) (HPC)) was 97 % of control and the T/C (dose: 400.0 mg/kg/injection, schedule: Q01DX001 (ip), vehicle: Klucel (hydroxypropylcellulose) (HPC)) was 104 % of control.
`O=C(O)c1cccc(-n2cnc3c(=O)[nH]cnc32)c1` was tested, and the T/C [1] was 108 % of control, the T/C [2] was 93 % of control and the T/C [3] was 96 % of control. For the same compound, the T/C [4] was 104 % of control.
`COc1cccc(C2CCCCC2O)c1` (centres undefined) was tested, and the T/C (dose: 50.0 mg/kg/injection, schedule: Q01DX009 (ip), vehicle: saline with Tween-80) was 90 % of control, the T/C (dose: 100.0 mg/kg/injection, schedule: Q01DX009 (ip), vehicle: saline with Tween-80) was 93 % of control and the T/C (dose: 200.0 mg/kg/injection, schedule: Q01DX009 (ip), vehicle: saline with Tween-80) was 96 % of control.
`Cc1cc(C)c2c(c1)-c1nc3c(cc1CC2)CCc1c(C)cc(C)cc1-3` was tested, and the T/C [5] was 100 % of control, the T/C [6] was 95 % of control and the T/C [7] was 97 % of control.
For `O=C(Nc1ccc2ccccc2c1)c1ccc2c(c1)C(=O)OC2=O`, the T/C [8] was 97 % of control and 100 % of control, the T/C (dose: 100.0 mg/kg/injection, schedule: Q01DX009 (ip), vehicle: carboxymethylcellulose (CMC)) was 97 % of control and 98 % of control and the T/C (dose: 100.0 mg/kg/injection, schedule: Q04DX002 (ip), vehicle: carboxymethylcellulose (CMC)) was 96 % of control and 103 % of control. For the same compound, the T/C (dose: 100.0 mg/kg/injection, schedule: Q04DX003 (ip), vehicle: carboxymethylcellulose (CMC)) was 100 % of control and 91 % of control, the T/C [9] was 93 % of control and 100 % of control and the T/C (dose: 200.0 mg/kg/injection, schedule: Q01DX009 (ip), vehicle: carboxymethylcellulose (CMC)) was 96 % of control and 100 % of control. The T/C (dose: 200.0 mg/kg/injection, schedule: Q04DX002 (ip), vehicle: carboxymethylcellulose (CMC)) was 99 % of control and 86 % of control, the T/C (dose: 200.0 mg/kg/injection, schedule: Q04DX003 (ip), vehicle: carboxymethylcellulose (CMC)) was 92 % of control and 91 % of control and the T/C [10] was 93 % of control and 97 % of control. For the same compound, the T/C (dose: 400.0 mg/kg/injection, schedule: Q01DX009 (ip), vehicle: carboxymethylcellulose (CMC)) was 100 % of control and 104 % of control, the T/C (dose: 400.0 mg/kg/injection, schedule: Q04DX002 (ip), vehicle: carboxymethylcellulose (CMC)) was 95 % of control and 90 % of control and the T/C (dose: 400.0 mg/kg/injection, schedule: Q04DX003 (ip), vehicle: carboxymethylcellulose (CMC)) was 88 % of control and 89 % of control.
`CC1(C)CC(C)(c2ccc(O)cc2)Oc2ccccc21` (centres undefined) was tested, and the T/C (dose: 100.0 mg/kg/injection, schedule: Q04DX003 (ip), vehicle: saline with Tween-80) was 93 % of control and the T/C (dose: 200.0 mg/kg/injection, schedule: Q04DX003 (ip), vehicle: saline with Tween-80) was 89 % of control.
With `CCOC(=O)COc1c(C(C)CC)cc([N+](=O)[O-])cc1[N+](=O)[O-]` (centres undefined) the T/C (dose: 25.0 mg/kg/injection, schedule: Q01DX009 (ip), vehicle: gum acacia) was 93 % of control, the T/C (dose: 25.0 mg/kg/injection, schedule: Q04DX002 (ip), vehicle: gum acacia) was 104 % of control and the T/C (dose: 50.0 mg/kg/injection, schedule: Q01DX009 (ip), vehicle: gum acacia) was 93 % of control. The T/C (dose: 50.0 mg/kg/injection, schedule: Q04DX002 (ip), vehicle: gum acacia) was 100 % of control, the T/C (dose: 100.0 mg/kg/injection, schedule: Q01DX009 (ip), vehicle: gum acacia) was 90 % of control and the T/C (dose: 100.0 mg/kg/injection, schedule: Q04DX002 (ip), vehicle: gum acacia) was 100 % of control and 92 % of control.
For `CCc1c(C)nnn1-c1ccccc1`, the T/C (dose: 75.0 mg/kg/injection, schedule: Q01DX001 (ip), vehicle: saline) was 94 % of control and the T/C (dose: 150.0 mg/kg/injection, schedule: Q01DX001 (ip), vehicle: saline) was 91 % of control.
`CC(C#N)(Nc1ccccc1)c1ccc(Br)cc1` (centres undefined) was tested, and the T/C [5] was 95 % of control, the T/C [6] was 95 % of control and the T/C [7] was 95 % of control.
`CN(C(=O)c1ccc(C(=N)N)cc1)c1ccccc1` was tested, and the T/C (dose: 100.0 mg/kg/injection, schedule: Q01DX001 (ip), vehicle: saline with Tween-80) was 100 % of control and the T/C (dose: 200.0 mg/kg/injection, schedule: Q01DX001 (ip), vehicle: saline with Tween-80) was 100 % of control.
`COc1ccccc1/C=C1\SC(=S)NC1=O` was tested, and the T/C (dose: 50.0 mg/kg/injection, schedule: Q01DX001 (ip), vehicle: carboxymethylcellulose (CMC)) was 92 % of control, the T/C [8] was 101 % of control and the T/C [9] was 106 % of control. The T/C [10] was 90 % of control.
